This is an account of results in patent publication EP4379060A1, “HIGH-EFFICIENCY PRODUCTION OF HYDROXYECTOINE” (Universität des Saarlandes, priority 2022, dated 2024).

The subject of test [1] is C. glutamicum. As to the kind of experiment: Microbioreactor cultivation at different initial ectoine levels (growth, on-line OD620). In kind it is cell-based, Corynebacterium glutamicum ATCC 13032. Particulars: 30°C. The protocol:
Cultivation of C. glutamicum in microbioreactors. Screening of C. glutamicum strains was carried out in 48-well flower plates with transparent bottom for online biomass sensing using a microbioreactor (BioLector, Beckman Coulter GmbH, Baesweiler, Germany, Baesweiler, Germany) at 1,300 rpm, 85% humidity and different temperatures, as given below. Two subsequent pre-cultures were conducted in shake flasks as described above. For main cultures, each well of the microtiter plate was filled with 1 mL of minimal glucose medium and inoculated to an initial OD660 of 0.5. Over the course of the cultivation, biomass was measured online as light backscatter at 620 nm. All experiments were conducted as triplicate.
In a first experiment the inventors examined if C. glutamicum, expressing ectD from P. stutzeri, can convert externally supplied ectoine into hydroxyectoine and, beneficially, excrete the latter (Fig. 1c). […]

The test system of test [2] is C. glutamicum. As to the kind of experiment: Quantification of intracellular ectoines and free amino acids in cells grown with ectoine. In kind it is cell-based, Corynebacterium glutamicum ATCC 13032. As to conditions: 37°C, 10 h. The protocol: Cultivation of C. glutamicum in shake flask. Cultures of C. glutamicum were incubated in baffled shake flasks (10% filling volume) in an orbital shaker at 230 rpm (Multitron, Infors AG, Bottmingen, Switzerland). For pre-culturing, cells were first grown overnight in complex BHI medium using a single colony from a 2-day pre-incubated BHI agar plate as inoculum. Subsequently, cells were harvested (8500 xg, 5 min, RT), washed once with minimal medium, and used to inoculate a second pre-culture in minimal glucose medium. The second pre-culture was then harvested during the exponential phase (8500 xg, 5 min, RT), washed once, and used to inoculate the main culture, again in minimal medium. The temperature was set to 30°C for precultures and 37°C for main cultures. All experiments were conducted as triplicate.
Quantification of intracellular metabolites. To quantify intracellular amino acids and ectoines, 2 mL of mid-exponentially growing cells were sampled by fast filtration (cellulose nitrate filter, 0.2 µm, 47 mm, Sartorius, Göttingen, Germany) (Bolten CJ, Kiefer P, Letisse F, Portais J-C, Wittmann C: Sampling for Metabolome Analysis of Microorganisms. Analytical chemistry 2007, 79:3843-3849.), including twice washing of the cells on the filter with two volumes of 2.5% NaCl. The filters were then transferred into cups prefilled with a 220 µM α-amino butyric acid solution as internal standard for later quantification. […] The obtained supernatants were collected for analysis, and intracellular amino acids were quantified by HPLC (Hans MA, Heinzle E, Wittmann C: Quantification of intracellular amino acids in batch cultures of Saccharomyces cerevisiae. Appl Microbiol Biotechnol 2001, 56:776-779.).
Quantification of ectoine and hydroxyectoine. Concentrations of ectoine and hydroxyectoine were analyzed by HPLC (Agilent Series 1290 Infinity, Agilent, Santa Clara, CA, USA). […] External standards were applied for quantification.
Quantification of amino acids. Amino acid levels of cell lysates were quantified using HPLC (Agilent Series 1290 Infinity, Agilent, Santa Clara, CA, USA) with α-amino butyric acid as internal standard. For this, the analytes were derivatized with ortho-phthalaldehyde and 9-fluorenylmethyl chloroformate and were separated and quantified as described previously (Krömer J, Fritz M, Heinzle E, Wittmann C: In vivo quantification of intracellular amino acids and intermediates of the methionine pathway in Corynebacterium glutamicum. Analytical biochemistry 2005, 340:171-173.).
For this purpose, the inventors extracted and quantified intracellular ectoine, hydroxyectoine, and free proteinogenic amino acids from the three strains during mid exponential growth, i. e. after 10 h (Fig. 3). […]

The mark [3] stands for this setting: hydroxyectoine producers, glucose + 5 mM ectoine.

`CC1=NC(C(=O)O)CCN1` (stereo not drawn) [ectoine, 1,4,5,6-tetrahydro-2-methyl-4-pyrimidinecarboxylic acid]: in the test on C. glutamicum [1] (increasing ectoine concentration, strains expressing MSM, VSA, HEL, SCO EctD variants), the cell fitness entry is reported as “unchanged”. The “cell fitness (specific growth rate)” value in the test on C. glutamicum [1] (initial ectoine 5, 10, 15 mM, strains pClik and pCES PtufectD^PST) is “not affected”. The “reduction of intracellular I-glutamic acid” value with C. glutamicum [2] (MSM strain, glucose + 5 mM ectoine, versus control without ectoine) was “up to 47%”. Also, in the test on C. glutamicum [2] (ectoine added to non-producing control strain with empty pCES vector, 5 mM), the “intracellular pools of I-glutamic acid, I-glutamine, and I-proline” value was “strongly reduced”. In the test with C. glutamicum [2] (setting [3]), the “drop of intracellular level of I-glutamine” value is listed as “up to 61%” and the “drop of intracellular level of I-proline” value was “up to 50%”.
